Tests used:
Plasmodium falciparum [1] = assay: Antiplasmodial activity against Plasmodium falciparum K1; format: functional, organism-based
Plasmodium falciparum [2] = assay: Antiplasmodial activity against chloroquine-sensitive Plasmodium falciparum 3D7 incubated for 72 hrs by DAPI-staining based imaging analysis; format: functional, organism-based; conditions: 3D7, 72 h
[3] = Stability of compound; format: physicochemical
HEK293 [4] = assay: Cytotoxicity against HEK293 cells incubated for 72 hrs by resazurin dye based assay; format: cell-based; conditions: Homo sapiens, HEK293, 72 h
HEK293 [5] = assay: Cytotoxicity against HEK293 cells at 40 uM incubated for 72 hrs by resazurin dye based assay relative to control; format: cell-based; conditions: human, hek293, 72 h

Compound | IC50 (Plasmodium falciparum [1]) [µM] | IC50 (Plasmodium falciparum [2]) [µM] | IC50 (HEK293 [4]) [µM] | other results
c1ccc2c(c1)[nH]c1c(N3CCCCC3)nccc12 | 1 to 18 | – | – | –
CN1CCN(c2nccc3c2[nH]c2ccccc23)CC1 | 1 to 18 | – | – | –
C[C@H]1[C@H](OC(=O)CCC(=O)O)O[C@@H]2O[C@@]3(C)CC[C@H]4[C@H](C)CC[C@@H]1[C@@]24OO3 [ARTESUNATE] | – | 0.0003 | – | –
OC1CCCN(c2nccc3c2[nH]c2ccccc23)C1 (stereo not drawn) | 1 to 18 | – | – | –
CN(C)CCc1nccc2c1[nH]c1ccccc12 | – | – | – | Stability [3]: Unstable
CN(C)CCCNc1nccc2c1[nH]c1ccccc12 | 1 to 18 | – | – | –
CCN(CC)C1CCN(c2nccc3c2[nH]c2ccccc23)CC1 | 1 to 18 | – | – | –
CCN(CC)CCCNc1nccc2c1[nH]c1ccccc12 | 1 to 18 | – | – | –
c1ccc2c(c1)[nH]c1c(N3CCC(N4CCCCC4)CC3)nccc12 | 1 to 18 | – | – | –
c1ccc2c(c1)[nH]c1c(N3CCC(N4CCCCCC4)CC3)nccc12 | 1 to 18 | – | – | –
OCCNc1nccc2c1[nH]c1ccccc12 | 1 to 18 | – | – | –
CCc1ncc(S(C)(=O)=O)c2c1[nH]c1ccccc12 | – | 21 | > 40 | Activity (HEK293 [5]): 17%
O=S(=O)(O)CCc1nccc2c1[nH]c1ccccc12 | – | 12 | > 40 | Activity (HEK293 [5]): 30%
CCN(CC)CCCC(C)Nc1ccnc2cc(Cl)ccc12 (stereo not drawn) [CHLOROQUINE] | – | – | > 40 | Activity (HEK293 [5]): 40%
c1ccc2c(c1)[nH]c1c(N3CCC(N4CCCC4)CC3)nccc12 | 1 to 18 | – | – | –
CCN(CC)CCCC(C)Nc1nccc2c1[nH]c1ccccc12 (stereo not drawn) | 1 to 18 | – | – | –
c1ccc2c(c1)[nH]c1c([C@H]3CC[C@H]3c3nccc4c3[nH]c3ccccc34)nccc12 | – | 10 | 10 | –
c1ccc2c(c1)[nH]c1c(N3CCOCC3)nccc12 | 1 to 18 | – | – | –
OCC(O)c1nccc2c1[nH]c1ccccc12 (stereo not drawn) | – | 14 | > 40 | Activity (HEK293 [5]): 37%
c1ccc2c(c1)[nH]c1c([C@H]3CC[C@@H]3c3nccc4c3[nH]c3ccccc34)nccc12 | – | > 40 | > 40 | Activity (HEK293 [5]): 29%
CCc1nccc2c1[nH]c1ccccc12 | – | 18 | > 40 | Activity (HEK293 [5]): 35%

Reference: ChEMBL document CHEMBL4602662, “Orthoscuticellines A-E, β-Carboline Alkaloids from the Bryozoan Orthoscuticella ventricosa Collected in Australia” (J Nat Prod, 2020)
